Assay results as given in US20140213779A1, “RIBOSWITCHES” (THE UNIVERSITY OF MANCHESTER, priority 2011, published 2014).
Where two headings read alike, the source gives them in different places.

What was measured:
add A-riboswitch = assay: Dual promoter construct, eGFP expression by fluorescence; assay type: cell-based, Escherichia coli
Excerpt: (§1) Here we show how two mutually orthogonal riboswitches can be independently controlled by varying concentrations of two distinct synthetic inducers, allowing dynamic expression landscapes to be accessed and optimal co-expression stoichiometries to be established. In the first instance a dual promoter system was constructed, in the pBKS vector with the orthogonal M6 riboswitch selected previously (Dixon et al Proc Natl Acad Sci USA 2010, 107, 2830] or Dixon et al Angew. Chem. 2012, 51, 3620-3624. controlling translation of the red fluorescent protein DsRed [Bevis, Nat. Biotech. 20:83 (2002)] in response to the ligand ammeline (Am). The bacteriophage lambda tR1 transcription terminator [Graham. NAR, Vol. 32:3093 (2004] was inserted downstream of DsRed gene, followed by a second lac promoter and the 2-aminopurine (2AP)-responsive parental add A-riboswitch [Dixon et al Proc Natl Acad Sci USA 2010, 107, 2830 & Mandal, Nat Struct Mol Biol 11: 29 (2004)] controlling translation of the green fluorescent protein eGFP (FIG. 34A). Escherichia coli was transformed with this dual promoter construct and expression of DsRed and eGFP genes, was then determined by fluorescence as function of inducer concentrations.
(§2) To explore the capacity of the dual promoter system for controlling the differential expression of DsRed and eGFP, multi-dosage matrix expression analysis was performed where induction factors (IF), the ratio of the maximum ligand-induced protein expression over the basal protein expression level, are determined for a full range of inducer concentrations (FIGS. 34A & B).
(§3) A number of reasons could possibly account for this. Firstly, ribosomal read-through could result in a more efficient initiation of translation at the eGFP RBS. […] Titration of the M6 selective inducer Am (0→250 μM) against the dual promoter in either the absence or presence 2AP (0 or 250 μM) gives dose-dependent protein expression curves for DsRed that are very similar, with maximum normalized red fluorescence (fu/OD620) of 1.1×10^5 and 1.0×10^5 respectively (FIG. 36A). […]

M6 = conditions: earlier in vitro studies; cited from earlier work
M6 riboswitch [1] = assay: Dual promoter construct, DsRed expression by fluorescence; assay type: cell-based, Escherichia coli; conditions: for maximum normalized red fluorescence: Am 0→250 μM
Excerpt: as §1, §2
(§4) A number of reasons could possibly account for this. Firstly, ribosomal read-through could result in a more efficient initiation of translation at the eGFP RBS. Secondly, riboswitches that control gene expression through changing the accessibility of the RBS (like addA), may also rely on Rho-dependent termination of transcription [Roth, Annu. Rev. Biochem. 78:305 (2009) & Peters Proc. Natl. Acad. Sci. USA 106:15406 (2009)]. In the case of the operon, when both riboswitches are activated by Am and 2AP, ribosomes will be recruited at both RBSs and will occupy the full length of the transcript, blocking Rho binding [Epshtein, Nature 463:245 (2010)]. Consequently the levels of full-length mRNA transcripts in the cell will be higher, than if either or both ligands are absent. Finally protection of the full-length transcript from nuclease degradation by actively translating ribosomes [Deana, Genes Dev. […] Titration of the M6 selective inducer Am (0→250 μM) against the dual promoter in either the absence or presence 2AP (0 or 250 μM) gives dose-dependent protein expression curves for DsRed that are very similar, with maximum normalized red fluorescence (fu/OD620) of 1.1×10^5 and 1.0×10^5 respectively (FIG. 36A). […]

[2] = test system: intergenic add-A riboswitch; assay: Operon construct, eGFP expression by fluorescence; assay type: cell-based, Escherichia coli
Excerpt: In a second series of experiments, a synthetic operon was designed with one promoter driving transcription of a single bicistronic mRNA comprising the M6 riboswitch regulating DsRed, and an intergenic add-A riboswitch controlling a downstream eGFP gene (FIG. 35A). […] Moreover, the maximum DsRed induction factor was 21.2, which is also more than 2-fold higher than the dual promoter system (FIG. 35B). The organisation of M6-DsRed in an operon, permits differential control, but also gives rise to significant amplification of the dynamic range of gene expression (IF), compared with the dual promoter system. […] In this case, eGFP output was clearly dependent on both ligands. A synergistic effect of the two ligands is observed in the induction factor matrix analysis, across a full range of Am and 2AP concentrations (FIG. 35C), with the expression landscape reaching a maximum induction factor of 24.1 in the presence of the highest concentrations of both inducers. […] Similarly no cross-talk is observed with the dual promoter system described above.
as §4, with “(2010)].” for “(2010)]. Consequently the levels of full-length mRNA transcripts in the cell will be higher, than if either or both ligands are absent. Finally protection of the full-length transcript from nuclease degradation by actively translating ribosomes [Deana, Genes Dev.”

M6″ riboswitch aptamer = assay: Isothermal titration calorimetry with M6″ aptamer; assay type: binding
Excerpt: (§5) Re-engineering the adenine responsive add A-riboswitch (addA) from Vibrio vulnificus (FIGS. 27A & B) [Dixon et al Proc Natl Acad Sci USA 2010, 107, 2830].

M6″ riboswitch [3] = assay: M6″-eGFP construct, GFP expression; assay type: cell-based, E. coli
Excerpt: as §5
In contrast, the genetic construct of the invention comprises a lac promoter/operator upstream of a 2nd generation riboswitch M6″-eGFP the lac promoter/operator and riboswitch respectively providing direct control of the expression of GFP via transcriptional and translational control.
Both the comparator construct and the genetic construct of the invention were provided on high copy plasmids in Top 10F′.

M6C″ riboswitch aptamer = assay: Isothermal titration calorimetry with M6C″ aptamer; assay type: binding; conditions: ITC, M6C″ aptamer domain
Excerpt: as §5

M6C″ riboswitch = assay: M6C″-eGFP riboswitch-reporter construct, gene expression; assay type: cell-based, E. coli
Excerpt: as §5

lac promoter/operator = assay: Control lac P/O construct, GFP expression; assay type: cell-based, E. coli
Excerpt: FIGS. 52 and 53 illustrate the increased dynamic regulation of expression of a gene of interest (here exemplified by green fluorescent protein) that can be achieved using gene constructs in accordance with the present invention, as compared to comparator (control) constructs. In the control constructs GFP expression is controlled directly by a lac promoter/operator alone. In contrast, in the gene constructs of the invention GFP expression is controlled by both a lac promoter/operator, and a riboswitch. In this arrangement the lac promoter provides transcriptional control of expression, and the riboswitch provides translational control. FIGS. 52 and 53 respectively show data generated by gene constructs of the invention comprising first and second generation riboswitches (referred to respectively as “1st Generation” and “2nd Generation” constructs) when present on high copy plasmids in E. coli Top10F′. In this example, the first generation riboswitch comprises AddA (the ligand for which is adenine), and the second generation riboswitch comprises M6″ (the ligand for which is A43). […]
The induction factor represents the degree to which gene expression is controlled, and is determined from the ratio of the maximum induced protein expression over the basal protein expression level. […]

M6″ riboswitch [4] = assay: T7 RNA polymerase expression under M6″ riboswitch control (spacer constructs); conditions: for regulation upon addition of IPTG: IPTG 0.5 mM
Protocol: (§6) Expression is induced using IPTG (0.5 mM) and increasing concentrations of A43 (respectively 0, 5, 10, 25, 50, 100, 250 uM) shown in the third to eighth columns.

add A = conditions: earlier in vitro studies; cited from earlier work
M6 riboswitch [5] = assay: Operon construct, DsRed expression by fluorescence; assay type: cell-based, Escherichia coli
Excerpt: In a second series of experiments, a synthetic operon was designed with one promoter driving transcription of a single bicistronic mRNA comprising the M6 riboswitch regulating DsRed, and an intergenic add-A riboswitch controlling a downstream eGFP gene (FIG. 35A). […] Moreover, the maximum DsRed induction factor was 21.2, which is also more than 2-fold higher than the dual promoter system (FIG. 35B). The organisation of M6-DsRed in an operon, permits differential control, but also gives rise to significant amplification of the dynamic range of gene expression (IF), compared with the dual promoter system. […] In this case, eGFP output was clearly dependent on both ligands. […]
as §3

AddA riboswitch = assay: addA-eGFP construct, GFP expression; assay type: cell-based, E. coli
Excerpt: In the control constructs GFP expression is controlled directly by a lac promoter/operator alone. In contrast, in the gene constructs of the invention GFP expression is controlled by both a lac promoter/operator, and a riboswitch. In this arrangement the lac promoter provides transcriptional control of expression, and the riboswitch provides translational control. […] In this example, the first generation riboswitch comprises AddA (the ligand for which is adenine), and the second generation riboswitch comprises M6″ (the ligand for which is A43).
GFP induction factors (left axis indicated by the green bars) and absolute normalized GFP fluorescence signal (right axis) in the absence of inducer (open shape) and in the presence of inducer (closed shape).

M6″ riboswitch [6] = test system: M6″ riboswitch
Protocol: as §6

[7] = test system: addA(wt) riboswitch aptamer; assay: Isothermal titration calorimetry with AddA(wt) aptamer; assay type: binding, Vibrio vulnificus; conditions: ITC, FIG. 59
Excerpt: Improved 2nd generation ligands have been discovered both in terms of in vivo and in vitro binding affinity.

Compound: Nc1ncc2[nH]cnc2n1 [2AP, 2-aminopurine]
- induction factor, eGFP (add A-riboswitch; increasing 2AP): 11.3
- maximum eGFP levels (add A-riboswitch; unaffected by Am): ca. 55×10^6 fu/OD620
- binding interaction (M6): no binding interaction
- effect upon DsRed induction (M6 riboswitch [1]; simultaneous increase in 2AP): essentially no effect
- output, eGFP ([2]; 2AP in the presence of Am (250 μM)): 25.9×10^6 fu/OD620
- maximum induction factor, eGFP ([2]; highest concentrations of both inducers (Am and 2AP)): 24.1
- maximum output, eGFP ([2]; titration of 2AP alone): 14.8×10^6 fu/OD620

Compound: Nc1ncnc2nc[nH]c12 [adenine]
- affinity (M6″ riboswitch aptamer; ITC, M6″ aptamer domain): no affinity
- response of riboswitch to ligand (M6″ riboswitch [3]; M6″): neither responds
- affinity (M6C″ riboswitch aptamer): no affinity
- response of riboswitch to ligand (M6C″ riboswitch): neither responds

Compound: CC(C)S[C@@H]1O[C@H](CO)[C@H](O)[C@H](O)[C@H]1O [IPTG]
- induction factor (control +/−IPTG) (lac promoter/operator): 4
- regulation upon addition of IPTG (M6″ riboswitch [4]; sp105): 44 fold
- regulation upon addition of IPTG (M6″ riboswitch [4]; sp120): ~1 fold
- control +/−IPTG (M6″ riboswitch [3]; riboswitch containing construct, column 2, no riboswitch inducer): 40 fold

Compound: Nc1nc(N)[nH]c(=O)n1 [Am, ammeline]
- Kd (M6″ riboswitch aptamer; ITC, M6″ aptamer domain, read-out: Kd): 1 to 1.2 µM
- binding interaction (add A): no binding interaction
- effect upon induction of eGFP expression (add A-riboswitch; changes in Am concentration): no effect
- maximum DsRed induction factor (M6 riboswitch [5]): 21.2
- maximum output, DsRed expression (M6 riboswitch [5]; Am 0→250 μM, presence or absence of 2AP (0 or 250 μM)): 2.9×10^6 fu/OD620
- maximum normalized red fluorescence (M6 riboswitch [1]; absence of 2AP): 1.1×10^5 fu/OD620
- maximum normalized red fluorescence (M6 riboswitch [1]; presence of 2AP 250 μM): 1.0×10^5 fu/OD620
- maximum induction factor, DsRed (M6 riboswitch [1]; increasing Am, co-administration of 2-AP): 9.3
- response of riboswitch to ligand (AddA riboswitch): does not respond

Compound: Nc1nc(N)c2nccnc2n1 [A44, 2,4-Diaminopteridine]
- Kd (M6″ riboswitch aptamer; ITC, FIG. 60, read-out: in vitro binding affinity): ~2 µM

Compound: Nc1ncnc(=O)[nH]1 [compound 3, azacytosine]
- Kd (M6C″ riboswitch aptamer): 1 to 1.2 µM
- response of riboswitch to ligand (AddA riboswitch): does not respond

Compound: Nc1nc(N)c2cncnc2n1 [A43, pyrimido[4,5-d]pyrimidine-2,4-diamine]
- Kd (M6″ riboswitch aptamer; isothermal titration calorimetry, FIG. 59, read-out: Kd): 0.189 µM
- induction of T7 RNA polymerase (blot) (M6″ riboswitch [4]; A43 50, 100, 250, 1000 μM, lac I forward or reverse, FIG. 48): dose-dependent
- regulation of T7RNAP (western blot) (M6″ riboswitch [4]; pTTv9, A43 2→250 uM, absence and presence of A1 (250 uM)): dose dependent regulation
- maximum eGFP expression compared with WT (M6″ riboswitch [3]; eGFP expression assay, FIG. 58): exceeds that of the WT (adddA) with adenine
- induction of gene expression (M6″ riboswitch [3]; in E. coli): 12 fold
- induction of gene expression (M6″ riboswitch [3]; in combination with lac promoter/operator, FIG. 53): > 400 fold
- induction factor (M6″ riboswitch [3]; maximum induced over basal, IPTG plus A43): ~450
- dynamic range of control (max/un-induced) (M6″ riboswitch [6]; 105 nt spacer, IPTG (0.5 mM) plus A43 (250 uM)): 134 fold
- induction factor above IPTG expression (M6″ riboswitch [6]; sp120): up to 12 fold
- affinity [7]: no affinity
